# In PubChem BioAssay AID1259407 (Chemical Carcinogenesis Research Information System (CCRIS), 2018):
# “Also recorded” adds a separate entry of the source. Active and inactive are the calls of the source. How the calls were made is not given here.
# Test system: CCRIS mutagenicity, Ames/micronucleus/aberration tests
# Experiment: CCRIS mutagenicity studies
# [1] = Test System: AMES SALMONELLA TYPHIMURIUM, Strain/Indicator: TA98, Metabolic Activation: NONE, Method: STANDARD PLATE
# [2] = Test System: AMES SALMONELLA TYPHIMURIUM, Strain/Indicator: TA100, Metabolic Activation: NONE, Method: STANDARD PLATE
# [3] = Test System: AMES SALMONELLA TYPHIMURIUM, Strain/Indicator: TA98, Metabolic Activation: RAT, LIVER, S-9, AROCLOR 1254, Method: STANDARD PLATE
# [4] = Test System: AMES SALMONELLA TYPHIMURIUM, Strain/Indicator: TA100, Metabolic Activation: RAT, LIVER, S-9, AROCLOR 1254, Method: STANDARD PLATE
# [5] = Test System: AMES SALMONELLA TYPHIMURIUM, Strain/Indicator: TA1535, Metabolic Activation: NONE, Method: STANDARD PLATE
# [6] = Test System: AMES SALMONELLA TYPHIMURIUM, Strain/Indicator: TA1537, Metabolic Activation: NONE, Method: STANDARD PLATE
compound,measurement,setting,value
N=C(N)c1ccc2cc(C(=N)N)[nH]c2c1,mutagenic call,[1],inactive; negative
same,mutagenic call,"Test System: AMES SALMONELLA TYPHIMURIUM, Strain/Indicator: TA98, Metabolic Activation: RAT, LIVER, S-9, PHENOBARBITAL, Method: STANDARD PLATE",inactive; negative
same,mutagenic call,[2],inactive; negative
same,mutagenic call,"Test System: AMES SALMONELLA TYPHIMURIUM, Strain/Indicator: TA100, Metabolic Activation: RAT, LIVER, S-9, PHENOBARBITAL, Method: STANDARD PLATE",inactive; negative
C[C@@H](C(=O)OC(C)(C)C)N(N=[N+]=[N-])C(=O)OC(C)(C)C,mutagenic call,[2],active; positive
O=[N+]([O-])c1cc2ccc3cccc4ccc(c1O)c2c34,mutagenic call,"Test System: AMES SALMONELLA TYPHIMURIUM, Strain/Indicator: TA98(NR), Metabolic Activation: NONE, Method: STANDARD PLATE",active; positive
same,mutagenic call,[1],active; positive
same,mutagenic call,[3],active; positive
same,mutagenic call,[2],active; positive
same,mutagenic call,[4],active; positive
CCNc1cc(NC(C)=O)c(N=Nc2c(Cl)cc([N+](=O)[O-])cc2[N+](=O)[O-])cc1OC,mutagenic call,"End Point: IN VITRO CHROMOSOMAL ABERRATIONS, Test System: CHL CELLS, Metabolic Activation: NONE",inactive; negative; precipitation of test chemical observed above 0.01 mg/ml; also recorded: active; positive (ploidy changes); precipitation of test chemical observed above 0.01 mg
CC(=O)N(C(C)=O)c1ccc(C)c(N=Nc2ccccc2C)c1,mutagenic call,"Test System: AMES SALMONELLA TYPHIMURIUM, Strain/Indicator: TA98, Metabolic Activation: NONE, Method: SUSPENSION/PLATE",inactive; negative
same,mutagenic call,"Test System: AMES SALMONELLA TYPHIMURIUM, Strain/Indicator: TA98, Metabolic Activation: RAT, LIVER, S-9, PHENOBARBITAL AND 5,6-BENZOFLAVONE, Method: SUSPENSION/PLATE",inactive; negative
same,mutagenic call,"Test System: AMES SALMONELLA TYPHIMURIUM, Strain/Indicator: TA100, Metabolic Activation: NONE, Method: SUSPENSION/PLATE",inactive; negative
same,mutagenic call,"Test System: AMES SALMONELLA TYPHIMURIUM, Strain/Indicator: TA100, Metabolic Activation: RAT, LIVER, S-9, PHENOBARBITAL AND 5,6-BENZOFLAVONE, Method: SUSPENSION/PLATE",inactive; negative
O=C(CCl)Nc1snc2cc(Cl)ccc12,mutagenic call,[1],inactive; negative
same,mutagenic call,"Test System: AMES SALMONELLA TYPHIMURIUM, Strain/Indicator: TA98, Metabolic Activation: S-9, Method: STANDARD PLATE",active; positive
same,mutagenic call,[2],active; positive
same,mutagenic call,"Test System: AMES SALMONELLA TYPHIMURIUM, Strain/Indicator: TA100, Metabolic Activation: S-9, Method: STANDARD PLATE",active; positive
same,mutagenic call,[5],inactive; negative
same,mutagenic call,"Test System: AMES SALMONELLA TYPHIMURIUM, Strain/Indicator: TA1535, Metabolic Activation: S-9, Method: STANDARD PLATE",inactive; negative
same,mutagenic call,[6],active; positive
same,mutagenic call,"Test System: AMES SALMONELLA TYPHIMURIUM, Strain/Indicator: TA1537, Metabolic Activation: S-9, Method: STANDARD PLATE",active; positive
CN(N=O)C(=O)Oc1cccc2c1OC(C)(C)C2,mutagenic call,"End Point: IN VIVO MICRONUCLEUS, Test System: BONE MARROW POLYCHROMATIC ERYTHROCYTES, Species: MOUSE, Strain/Sex: KM/MALE, FEMALE, Route: IP INJECTION",active; positive
CC(O)c1cc2ccc3cccc4ccc(c1)c2c34 (configuration not stated),mutagenic call,"Test System: AMES SALMONELLA TYPHIMURIUM, Strain/Indicator: TA98, Metabolic Activation: HUMAN, LIVER, CYTOSOL, PAPS, Method: PREINCUBATION",active; positive
C#C[C@]1(O)CC[C@H]2[C@@H]3CCC4=CC(=O)CC[C@@H]4[C@H]3CC[C@@]21C,mutagenic call,"End Point: IN VITRO CHROMOSOMAL ABERRATIONS, Test System: HUMAN LYMPHOCYTES, Metabolic Activation: NONE",inactive; negative
same,mutagenic call,"End Point: IN VITRO CHROMOSOMAL ABERRATIONS, Test System: HUMAN LYMPHOCYTES, Metabolic Activation: RAT, LIVER, S-9, PHENOBARBITONE",inactive; negative
same,mutagenic call,"End Point: IN VIVO MICRONUCLEUS, Test System: HEPATOCYTES, Species: RAT, Strain/Sex: SPRAGUE-DAWLEY/FEMALE, Route: INTRAGASTRIC (GAVAGE)",inactive; negative (nonstatistically significant increase)
same,mutagenic call,"Test System: AMES SALMONELLA TYPHIMURIUM, Strain/Indicator: TA98, Metabolic Activation: NONE",inactive; negative
same,mutagenic call,"Test System: AMES SALMONELLA TYPHIMURIUM, Strain/Indicator: TA98, Metabolic Activation: NONE, Method: PREINCUBATION",inactive; negative
same,mutagenic call,[1],inactive; negative
same,mutagenic call,"Test System: AMES SALMONELLA TYPHIMURIUM, Strain/Indicator: TA98, Metabolic Activation: RAT, LIVER, S-9, AROCLOR 1254, Method: PREINCUBATION",inactive; negative
same,mutagenic call,[3],inactive; negative
same,mutagenic call,"Test System: AMES SALMONELLA TYPHIMURIUM, Strain/Indicator: TA98, Metabolic Activation: S-9",inactive; negative
same,mutagenic call,"Test System: AMES SALMONELLA TYPHIMURIUM, Strain/Indicator: TA100, Metabolic Activation: NONE",inactive; negative
same,mutagenic call,"Test System: AMES SALMONELLA TYPHIMURIUM, Strain/Indicator: TA100, Metabolic Activation: NONE, Method: PREINCUBATION",inactive; negative
same,mutagenic call,[2],inactive; negative
same,mutagenic call,"Test System: AMES SALMONELLA TYPHIMURIUM, Strain/Indicator: TA100, Metabolic Activation: RAT, LIVER, S-9, AROCLOR 1254, Method: PREINCUBATION",inactive; negative
same,mutagenic call,[4],inactive; negative
same,mutagenic call,"Test System: AMES SALMONELLA TYPHIMURIUM, Strain/Indicator: TA100, Metabolic Activation: S-9",inactive; negative
same,mutagenic call,"Test System: AMES SALMONELLA TYPHIMURIUM, Strain/Indicator: TA1535, Metabolic Activation: NONE",inactive; negative
same,mutagenic call,"Test System: AMES SALMONELLA TYPHIMURIUM, Strain/Indicator: TA1535, Metabolic Activation: NONE, Method: PREINCUBATION",inactive; negative
same,mutagenic call,[5],inactive; negative
same,mutagenic call,"Test System: AMES SALMONELLA TYPHIMURIUM, Strain/Indicator: TA1535, Metabolic Activation: RAT, LIVER, S-9, AROCLOR 1254, Method: PREINCUBATION",inactive; negative
same,mutagenic call,"Test System: AMES SALMONELLA TYPHIMURIUM, Strain/Indicator: TA1535, Metabolic Activation: RAT, LIVER, S-9, AROCLOR 1254, Method: STANDARD PLATE",inactive; negative
same,mutagenic call,"Test System: AMES SALMONELLA TYPHIMURIUM, Strain/Indicator: TA1535, Metabolic Activation: S-9",inactive; negative
same,mutagenic call,"Test System: AMES SALMONELLA TYPHIMURIUM, Strain/Indicator: TA1537, Metabolic Activation: NONE",inactive; negative
same,mutagenic call,"Test System: AMES SALMONELLA TYPHIMURIUM, Strain/Indicator: TA1537, Metabolic Activation: NONE, Method: PREINCUBATION",inactive; negative
same,mutagenic call,[6],inactive; negative
same,mutagenic call,"Test System: AMES SALMONELLA TYPHIMURIUM, Strain/Indicator: TA1537, Metabolic Activation: RAT, LIVER, S-9, AROCLOR 1254, Method: PREINCUBATION",inactive; negative
same,mutagenic call,"Test System: AMES SALMONELLA TYPHIMURIUM, Strain/Indicator: TA1537, Metabolic Activation: RAT, LIVER, S-9, AROCLOR 1254, Method: STANDARD PLATE",inactive; negative
same,mutagenic call,"Test System: AMES SALMONELLA TYPHIMURIUM, Strain/Indicator: TA1537, Metabolic Activation: S-9",inactive; negative
same,mutagenic call,"Test System: AMES SALMONELLA TYPHIMURIUM, Strain/Indicator: TA1538, Metabolic Activation: NONE, Method: PREINCUBATION",inactive; negative
same,mutagenic call,"Test System: AMES SALMONELLA TYPHIMURIUM, Strain/Indicator: TA1538, Metabolic Activation: NONE, Method: STANDARD PLATE",inactive; negative
same,mutagenic call,"Test System: AMES SALMONELLA TYPHIMURIUM, Strain/Indicator: TA1538, Metabolic Activation: RAT, LIVER, S-9, AROCLOR 1254, Method: PREINCUBATION",inactive; negative
same,mutagenic call,"Test System: AMES SALMONELLA TYPHIMURIUM, Strain/Indicator: TA1538, Metabolic Activation: RAT, LIVER, S-9, AROCLOR 1254, Method: STANDARD PLATE",inactive; negative
same,mutagenic call,"Test System: E. COLI, Strain/Indicator: WP2 UVRA, Metabolic Activation: NONE",inactive; negative
same,mutagenic call,"Test System: E. COLI, Strain/Indicator: WP2 UVRA, Metabolic Activation: S-9",inactive; negative
Cc1cc(N)c(C)c2c1[nH]c1ccc(O)cc12,mutagenic call,[1],inactive; negative
same,mutagenic call,"Test System: AMES SALMONELLA TYPHIMURIUM, Strain/Indicator: TA98, Metabolic Activation: RAT LIVER S-9, AROCLOR 1254, Method: STANDARD PLATE",active; positive
same,mutagenic call,[2],inactive; negative
same,mutagenic call,"Test System: AMES SALMONELLA TYPHIMURIUM, Strain/Indicator: TA100, Metabolic Activation: RAT LIVER S-9, AROCLOR 1254, Method: STANDARD PLATE",inactive; negative
